Here are results for two molecules from patent US8080524B2, “Agent for slowing hair loss and/or stimulating hair growth” (Centre National de la Recherche Scientifique (CNRS), priority 2005, dated 2011).

Residues, ends and D or L forms follow the SMILES beside them.

In assay [1] the test system is cells in mitosis (Ki67) in epithelial sheath of human hair explants. Put plainly: Anti-Ki67 immunolabelling of cells in mitosis along the epithelial sheath of hairs. The conditions noted are these: for increase in number of cells in mitosis compared to control hair: D8 of treatment. It is filed as cell-based. As to the method:
(§1) Study of the stimulating activity of tetrapeptide AcSDKP on the growth of isolated hairs maintained in a state of ex vivo survival. This study was conducted on 66 human hair explants obtained from scalp-plasty.
(§2) Hairs comprised of hair follicles were isolated by micro dissection and individually placed in wells (96-well culture plate) and maintained in survival for 15 days under conventional tissue culturing conditions (37° C., 5% CO2) in Williams medium.
(§3) Tetrapeptide AcSDKP added to the culture medium was tested at three concentrations: 10^−4 M, 10^−7 M and 10^−10 M. Minoxidil (2/1 diamino 6-piperidinopyrimidine 3-oxide) at a concentration of 10^−5 M was used as a positive control.
(§4) On D8 and D15 of treatment, six hairs from each batch (untreated control, Minoxidil, +AcSDKP 10^−4 M, +AcSDKP 10^−7 M, +AcSDKP 10^−10 M) were removed and prepared for histological study.
(§5) Three explants from each batch were fixed in ordinary Bouin and the three other hairs were frozen and stored at −80° C.
In addition to measurements of the length of each hair, the general morphology of each hair was analysed and the expression of laminin 5 and collagen IV, two constituents of the basal membrane, was evaluated. Moreover, immunolabeling with anti-Ki67 antibodies (nuclear protein expressed in growing cells) was carried out of cells in mitosis in order to establish the mitotic index of follicle structures.
This study was conducted on cuts of frozen hairs.

The test system of assay [2] is keratin 19 (CK19). The assay can be described thus: Immunolabelling of keratin 19 (CK19), epithelial stem cell marker, on frozen hair cuts. It is filed as cell-based, human. As to the method: as §1, §2, §3, §4, §5
Immunolabeling of keratin 19 (CK19) was carried out on frozen cuts of control hairs and hairs treated with AcSDKP or Minoxidil in order to evaluate the proportion of undifferentiated primitive cells (or even stem cells) present in the external epithelial sheaths of the hair follicles. […]

Assay [3] relates to human hair explants. The assay can be described thus: Growth (length) of isolated human hairs maintained in ex vivo survival. The assay is classed as cell-based. As to the method: as §1, §2, §3
Culture mediums containing the compounds to be tested were renewed every three days.
Hairs were photographed using a microscope and a CCD camera coupled to acquisition software and archiving.
Each hair was measured on D0, D3, D6, D8, D10, D13 and D15 using a LEICA IM1000 measurement module to give measurements in μm.
Each hair was photographed and its length evaluated using software giving values in μm.

Assay [4] relates to type IV collagen. Put plainly: Immunolabelling of type IV collagen on frozen hair cuts. The assay is classed as cell-based, human. As to the method: as §1, §2, §3
On D8 and D15 of treatment, six hairs from each batch (untreated control, Minoxidil, +AcSDKP 10^−4 M, +AcSDKP 10^−7 M, +AcSDKP 10^−10 M) were removed and prepared for histological study. […]
In addition to measurements of the length of each hair, the general morphology of each hair was analysed and the expression of laminin 5 and collagen IV, two constituents of the basal membrane, was evaluated. […]
Immunolabelling of type IV collagen was carried out on frozen cuts of the control hairs and hairs treated with AcSDKP or Minoxidil in order to quantify this constituent of the basal membrane which separates the dermal compartment from the epithelial compartment.

For assay [5], the system named is epithelial sheaths of human hair explants. The assay can be described thus: General morphology of hair histological cuts stained with Masson Trichromium (neo-keratinocytes). It is filed as cell-based. As to the method:
as §1, §2, §3, §4, §5
Analysis of the general morphology of histological cuts stained with Masson Trichromium focusing on the area between the opening of the sebaceous glands and the hair bulb.
Hairs cultured on D0 naturally undergo changes during survival as is observed after an in vivo graft. The restructuring effect of AcSDKP was visualised through the appearance of neo-keratinocytes along the conjunctival sheath which migrate from the bulge and to a lesser extent from the bulb, two regions where stem cells are found. […] This effect leads to clear appearance of neo-keratinocytes along the length of the hair, from the epidermis to the bulb. The structure of the neo-keratinocytes formed in this way is uniform and stratified. It varies as a function of treatment time and AcSDKP concentration. The clearest activity was found on D15 of treatment with AcSDKP at 10^−10 M.

In assay [6] the test system is laminin 5. Put plainly: Immunolabelling of laminin 5 in hair cuts. It is filed as cell-based, human. As to the method:
Study of the stimulating activity of tetrapeptide AcSDKP on the growth of isolated hairs maintained in a state of ex vivo survival. This study was conducted on 66 human hair explants obtained from scalp-plasty. Hairs comprised of hair follicles were isolated by micro dissection and individually placed in wells (96-well culture plate) and maintained in survival for 15 days under conventional tissue culturing conditions (37° C., 5% CO2) in Williams medium. Tetrapeptide AcSDKP added to the culture medium was tested at three concentrations: 10^−4 M, 10^−7 M and 10^−10 M. Minoxidil (2/1 diamino 6-piperidinopyrimidine 3-oxide) at a concentration of 10^−5 M was used as a positive control. On D8 and D15 of treatment, six hairs from each batch (untreated control, Minoxidil, +AcSDKP 10^−4 M, +AcSDKP 10^−7 M, +AcSDKP 10^−10 M) were removed and prepared for histological study. Three explants from each batch were fixed in ordinary Bouin and the three other hairs were frozen and stored at −80° C. In addition to measurements of the length of each hair, the general morphology of each hair was analysed and the expression of laminin 5 and collagen IV, two constituents of the basal membrane, was evaluated. Moreover, immunolabeling with anti-Ki67 antibodies (nuclear protein expressed in growing cells) was carried out of cells in mitosis in order to establish the mitotic index of follicle structures. Laminin 5, another constituent of the basal membrane, is present in the bulb around the dermal papilla as well as in the median section of hair. […] Nevertheless, expression of laminin 5 was higher on D15 with AcSDKP at 10^−7 M (FIG. 4B).

With `Nc1cc(N2CCCCC2)nc(N)[n+]1[O-]` [Minoxidil, 2/1 diamino 6-piperidinopyrimidine 3-oxide, reference compound], the “Average number of cells in mitosis per mm of hair” value in assay [1] (10^−5 M, D8) is 18.5 per mm of hair; in assay [1] (10^−5 M, D15) it was 23.3 per mm of hair. Also, the “increase in number of cells in mitosis compared to control hair” value in assay [1] (10^−5 M) is listed as “+38%”.

Take `CC(=O)N[C@@H](CO)C(=O)N[C@@H](CC(=O)O)C(=O)N[C@@H](CCCCN)C(=O)N1CCC[C@H]1C(=O)O` [AcSDKP, CH3CO-Ser-Asp-Lys-Pro-OH] (Ac-SDKP-OH): the “increase in CK19 levels” value in assay [2] (10^−10 M, D8 and D15 of treatment) is “maximal”. Also, the “expression of CK19 compared to control hair and to hair treated with Minoxidil” value in assay [2] (hair kept in survival in the presence of the tetrapeptide) is recorded as “significantly greater”. Moreover, the “hair growth (length of hair)” value in assay [3] (AcSDKP 10^−10 M in culture medium, D15 of treatment) is “significantly stimulates hair growth”. Further, the “hair growth (difference in the hair shafts)” value in assay [3] (AcSDKP at higher concentrations (10^−4 M, 10^−7 M), D15) was “no significant difference”. The “increase in collagen levels” value in assay [4] (10^−10 M, D8 and D15) is reported as “all the more marked”. For the same molecule, the “collagen IV in the bulb and median section of hair” value in assay [4] (three concentrations tested, as of D8 of treatment) was “very clear increase”. The “Average number of cells in mitosis per mm of hair” value in assay [1] (10^−4 M, D8) is listed as 35.4 per mm of hair; in assay [1] (10^−4 M, D15), 23.4 per mm of hair; in assay [1] (10^−7 M, D8), 34 per mm of hair; in assay [1] (10^−7 M, D15) it was 21.5 per mm of hair; in assay [1] (10^−10 M, D8), 52.6 per mm of hair; in assay [1] (10^−10 M, D15) it was 29.3 per mm of hair. In addition, the “increase in number of cells in mitosis compared to control hair” value in assay [1] (10^−10 M) is on record as “+300%”. Moreover, the “number of cells in mitosis in treated hair compared to control hair” value in assay [1] (three concentrations tested (10^−4 M, 10^−7 M, 10^−10 M)) is on record as “significantly increases”. In addition, the “thickness of neo-keratinocyte structure” value in assay [5] (10^−4 M, 10^−7 M and especially 10^−10 M, D15) is listed as “increasingly thicker”. For the same molecule, in assay [5] (10^−4 M, D8), the “adhesion of epithelial sheaths to collagen” value is recorded as “more or less detached”. Moreover, the neo-keratinocyte sites result in assay [5] (10^−4 M, D8) is “absent”. The “adhesion of epithelium to the underlying collagen” value in assay [5] (two active concentrations (10^−7 M and 10^−10 M), D8) is “adheres fully”. For the same molecule, the “expression of laminin 5” value in assay [6] (10^−7 M, D15) was “higher”. Moreover, the “laminin 5 effect in the median zone of hair” value in assay [6] (10^−10 M, D8 of treatment) is on record as “considerably more marked”. The “level of laminin 5 in hair structures” value in assay [6] (following exposure of hair to AcSDKP) is given as “significant increase”.
